This note sets out measurements from patent publication US9834542B2, “LXR modulators” (BRISTOL-MYERS SQUIBB COMPANY, priority 2013, dated 2017).

In the experiment the target is T1, LXRβ (Homo sapiens, UniProt P55055).
T1 construct: Co-transfection expression plasmids, comprising full-length LXRα (pCMX-h LXRα[…] or LXRβ (pCMX-hLXRβ)); expressed in transfected cells; host or cells: CV-1 African Green Monkey Kidney Cells
T1 sequence (P55055 1-460): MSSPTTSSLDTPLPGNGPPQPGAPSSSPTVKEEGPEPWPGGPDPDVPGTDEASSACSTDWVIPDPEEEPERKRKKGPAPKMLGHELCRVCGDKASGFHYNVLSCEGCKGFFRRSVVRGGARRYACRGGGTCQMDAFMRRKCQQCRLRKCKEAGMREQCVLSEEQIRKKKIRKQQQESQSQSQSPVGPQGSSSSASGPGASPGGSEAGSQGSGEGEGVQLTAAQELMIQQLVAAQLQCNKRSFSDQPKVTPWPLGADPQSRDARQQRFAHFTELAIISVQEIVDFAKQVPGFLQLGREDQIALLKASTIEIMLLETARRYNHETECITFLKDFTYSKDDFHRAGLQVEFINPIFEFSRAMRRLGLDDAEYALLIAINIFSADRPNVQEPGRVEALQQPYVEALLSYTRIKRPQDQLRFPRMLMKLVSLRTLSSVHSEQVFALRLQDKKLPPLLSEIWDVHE
T1 sequence (P19793 1-462 partner): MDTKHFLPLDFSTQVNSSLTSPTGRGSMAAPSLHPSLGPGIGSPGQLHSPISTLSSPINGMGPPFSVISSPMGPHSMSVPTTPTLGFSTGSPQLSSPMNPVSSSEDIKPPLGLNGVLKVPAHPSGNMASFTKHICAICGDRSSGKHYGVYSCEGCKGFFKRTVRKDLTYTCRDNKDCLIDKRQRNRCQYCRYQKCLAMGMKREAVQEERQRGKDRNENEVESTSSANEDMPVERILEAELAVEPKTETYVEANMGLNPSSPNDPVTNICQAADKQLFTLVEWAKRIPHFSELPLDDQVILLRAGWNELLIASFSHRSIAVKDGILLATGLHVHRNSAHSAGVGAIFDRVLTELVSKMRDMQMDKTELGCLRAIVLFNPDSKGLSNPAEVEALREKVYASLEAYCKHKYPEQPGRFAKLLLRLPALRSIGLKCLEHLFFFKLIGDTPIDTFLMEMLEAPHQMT
The experiment in a line: Co-transfection assay (LXRE luciferase reporter), LXRβ. In kind it is cell-based. Also on record: % Efficacy: concentration or dose not given beside the values. The note with it: for EC50: CV-1 cells transfected with pCMX-hLXRβ and LXREx1-Tk-Luciferase, 20 hours incubation; for Emax: read-out: % Efficacy. The method in brief:
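Luciferase output from an LXRE-Tk reporter measured after 20 h, 37 °C compound exposure of transiently transfected CV-1 cells expressing human LXRβ with endogenous RXR. EC50 fitted from 11-point half-log dose responses (mean of ≥2 runs); % efficacy versus maximal response of the reference agonist.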

The mark [1] stands for this setting: LXRβ co-transfection, relative to high control 1-(2,4-difluorobenzyl)-2-oxo-6-(4-phenoxyphenyl)-4-(trifluoromethyl)-1,2-dihydropyridine-3-carbonitrile.

The EC50 is the concentration needed to bring the measured effect to its halfway point. `Cc1nc(C(F)(F)F)c(Cl)n1-c1ccc(-c2cccc(S(C)(=O)=O)c2)cc1-n1nncc1-c1ccc(Cl)cc1Cl` [Example 59, 1-{4-[5-chloro-2-methyl-4-(trifluoromethyl)-1H-imidazol-1-yl]-3′-(methylsulfonyl)biphenyl-3-yl}-5-(2,4-dichlorophenyl)-1H-1,2,3-triazole] returned an EC50 of 0.218 µM. The Emax under setting [1] stood at 95%.
The corresponding values for `Cc1nc(C(F)F)cn1-c1ccc(-c2cccc(S(C)(=O)=O)c2)cc1-n1nncc1C(C)c1ccc(Cl)cc1` (stereo not drawn) [Example 133, 5-[1-(4-chlorophenyl)ethyl]-1-{4-[4-(difluoromethyl)-2-methyl-1H-imidazol-1-yl]-3′-(methylsulfonyl)biphenyl-3-yl}-1H-1,2,3-triazole] are 0.256 µM and 71%.
The corresponding values for `Cc1nc(C(F)(F)F)cn1-c1ccc(-c2cc(F)c(CO)c(S(C)(=O)=O)c2)cc1-c1ocnc1-c1ccc(OC(F)(F)F)cc1` [Example 359, [3-fluoro-5-(methylsulfonyl)-4′-[2-methyl-4-(trifluoromethyl)-1H-imidazol-1-yl]-3′-(4-{4-[(trifluoromethyl)oxy]phenyl}-1,3-oxazol-5-yl)biphenyl-4-yl]methanol] are 0.138 µM and 91%.
The like results for `Cc1nc(C(F)(F)F)cn1-c1ccc(-c2cc(F)c(CO)c(S(C)(=O)=O)c2)cc1-c1ccnn1-c1ccc(OC(F)(F)F)cc1` [Example 292, [3-fluoro-5-(methylsulfonyl)-4′-[2-methyl-4-(trifluoromethyl)-1H-imidazol-1-yl]-3′-(1-{4-[(trifluoromethyl)oxy]phenyl}-1H-pyrazol-5-yl)biphenyl-4-yl]methanol] were, in that order, 0.065 µM and 70%.
Consider `CCCc1nc(-c2cc(-c3ccc(CO)c(S(C)(=O)=O)c3)ccc2-n2cc(C(F)(F)F)nc2C)c(-c2ccc(OC(F)(F)F)cc2)o1` [Example 558, (4′-(2-methyl-4-(trifluoromethyl)-1H-imidazol-1-yl)-3-(methylsulfonyl)-3′-(2-propyl-5-(4-(trifluoromethoxy)phenyl)oxazol-4-yl)-[1,1′-biphenyl]-4-yl)methanol], for which it took 0.01 µM to reach a half-maximal effect (EC50). In addition, the Emax under setting [1] was 82%.
The corresponding values for `Cc1nc(-c2ccc(OC(F)F)cc2)c(-c2cc(-c3cccc(S(C)(=O)=O)c3)ccc2-n2cc(C(F)(F)F)nc2C)o1` [Example 619, 4-(4-(difluoromethoxy)phenyl)-2-methyl-5-(4-(2-methyl-4-(trifluoromethyl)-1H-imidazol-1-yl)-3′-(methylsulfonyl)-[1,1′-biphenyl]-3-yl)oxazole] are 0.051 µM and 112%.
The corresponding values for `COc1ccc(-c2oc(C)nc2-c2cc(-c3cc(F)c(CO)c(S(C)(=O)=O)c3)ccc2-n2cc(C(F)(F)F)nc2C)cn1` [Example 570, (3-fluoro-3′-(5-(6-methoxypyridin-3-yl)-2-methyloxazol-4-yl)-4′-(2-methyl-4-(trifluoromethyl)-1H-imidazol-1-yl)-5-(methylsulfonyl)-[1,1′-biphenyl]-4-yl)methanol] are 0.199 µM and 93%.
With `Cc1nc(C(F)F)cn1-c1ccc(-c2cccc(S(C)(=O)=O)c2)cc1-n1nncc1-c1ccc(OC(F)(F)F)c(F)c1` [Example 169, 1-{4-[4-(difluoromethyl)-2-methyl-1H-imidazol-1-yl]-3′-(methylsulfonyl)biphenyl-3-yl}-5-{3-fluoro-4-[(trifluoromethyl)oxy]phenyl}-1H-1,2,3-triazole], the EC50 is 0.57 µM. Moreover, the Emax under setting [1] turned out to be 93%.
On to `Cc1cc(-c2oc(C)nc2-c2cc(-c3cc(F)c(CO)c(S(C)(=O)=O)c3)ccc2-n2cc(C(F)(F)F)nc2C)cc(Cl)n1` [Example 432, (3′-(5-(2-chloro-6-methylpyridin-4-yl)-2-methyloxazol-4-yl)-3-fluoro-4′-(2-methyl-4-(trifluoromethyl)-1H-imidazol-1-yl)-5-(methylsulfonyl)biphenyl-4-yl)methanol], for which a half-maximal response (EC50) required 0.045 µM. Under setting [1], the “% Efficacy” value came out at 83%.
